One assay concerns NCI‐H2122 and A549 cells. The assay can be described thus: Cell scratch and cell migration assays. Particulars: 24 h. The assay is classed as cell-based, human. On the procedure:
supplies are listed in Supplementary Table S5. The relevant reagents for protein extraction from Escherichia coli are listed in Supplementary Table S6. Inhibitory effects of embelin on KRAS-mutant and wild-type cells are listed in Supplementary Table S7.
For the adherent cell viability assay, cells in the logarithmic growth phase were seeded in 96-well culture plates at a density of 5×103 well-1 and incubated overnight. Diluted compounds or DMSO were added, or specific treatments were incubated at 37 °C and 5% CO2 for 24 h or 48 h. Cell viability was determined using CCK-8 or CellLightTM Cell Viability Assay Kit, according to the manufacturer's protocol. The luminescence signals of the treated samples were normalized to those of the DMSO group.
For spherical cell viability assays, cells in the logarithmic growth phase were inoculated ata density of 4×10^3 well-1 into 96-well spherical cell microplates and incubated at 37 °C, 5% CO2 for 24 h or 48 h. Cell viability was measured using the CellTiter-Glo® Luminescent Cell Viability 3D Cell Viability Assay Kit, according to the manufacturer’s protocol. […]
Finally, the staining results were recorded using an inverted microscope. […]
NCI-H2122 and A549 cells were seeded in six-well plates. […] Finally, the scratch was photographed using an inverted microscope and the wound healing status was recorded. […]

The target of another assay is T1, HePTP (Homo sapiens, UniProt P35236).
T1 construct: His; made in house; host or cells: E. coli
T1 sequence (P35236 1-360): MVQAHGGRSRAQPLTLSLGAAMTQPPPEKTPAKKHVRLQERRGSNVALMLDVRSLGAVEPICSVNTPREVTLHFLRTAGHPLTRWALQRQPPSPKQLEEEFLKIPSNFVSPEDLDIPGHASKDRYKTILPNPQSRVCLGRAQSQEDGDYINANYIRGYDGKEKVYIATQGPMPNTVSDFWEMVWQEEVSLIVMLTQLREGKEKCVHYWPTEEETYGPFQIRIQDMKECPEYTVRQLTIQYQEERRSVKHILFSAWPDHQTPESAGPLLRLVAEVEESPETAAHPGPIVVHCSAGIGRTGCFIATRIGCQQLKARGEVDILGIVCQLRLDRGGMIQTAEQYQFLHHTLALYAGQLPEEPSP
The experiment in a line: PTPs activity assay (DiFMUP). The assay is classed as biochemical. On the procedure:
(§1) Catalytic activity screening methods for PTPs using candidate compounds were performed as previously described.^[ [77] ^] In brief, soluble fusion PTP proteins, His‐ΔSHP2, encompassing the peptide from amino acids 205–593 retaining PTP activity, His‐ΔSHP2^K325A, His‐ΔSHP1, encompassing the peptide from amino acids 202–595 retaining PTP activity, His‐PTP1B, His‐HePTP, His‐VHR, and His‐TCPTP were cloned, expressed, and purified in E. coli. After determining protein concentration using bicinchoninic acid (BCA) assay kit, 1 µg fusion protein, 10 µM library compound were added in 100 µL reaction mixture (55 mM 4‐(2‐hydroxyethyl)‐1‐piperazineethanesulfonic acid [HEPES], 100 mM sodium chloride [NaCl], 0.5 mM ethylenediaminetetraacetic acid [EDTA], 1 mM dithiothreitol [DTT], 0.01% Triton X‐100, 0.002% bovine serum albumin [BSA], and 0.1% dimethyl sulfoxide [DMSO]) and incubated at 37 °C for 30 min in the dark, with Na3VO4 as positive control. The detection substrate DiFMUP (50 µM) was promptly added to each reaction and functioned at 37 °C for 30 min in the dark. The fluorescence intensity was then measured using Multimode Plate Reader (λa = 358 nm, λe = 455 nm, PerkinElmer, USA).

In a further assay the target is T2, ΔSHP2 (Homo sapiens, UniProt Q06124).
T2 construct: His‐ΔSHP2, encompassing the peptide from amino acids 205–593 retaining PTP activity; His; made in house; host or cells: E. coli
T2 sequence (Q06124 205-593): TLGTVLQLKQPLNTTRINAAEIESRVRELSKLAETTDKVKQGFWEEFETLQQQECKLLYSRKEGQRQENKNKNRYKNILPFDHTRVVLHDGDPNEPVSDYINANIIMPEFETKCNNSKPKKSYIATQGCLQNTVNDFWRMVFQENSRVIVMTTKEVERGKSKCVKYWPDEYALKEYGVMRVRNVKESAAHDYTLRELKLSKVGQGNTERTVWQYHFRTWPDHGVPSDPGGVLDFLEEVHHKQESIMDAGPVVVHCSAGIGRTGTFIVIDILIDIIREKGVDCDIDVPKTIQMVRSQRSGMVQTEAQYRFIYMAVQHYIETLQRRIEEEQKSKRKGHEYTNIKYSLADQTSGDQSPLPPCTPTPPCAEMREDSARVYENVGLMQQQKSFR
The assay can be described thus: PTPs activity assay (DiFMUP). The format is biochemical. How it is done: as §1

For another assay, the target named is T3, ΔSHP1 (Homo sapiens, UniProt P29350).
T3 construct: His‐ΔSHP1, encompassing the peptide from amino acids 202–595 retaining PTP activity; His; made in house; host or cells: E. coli
T3 sequence (P29350 202-595, stated change not applied): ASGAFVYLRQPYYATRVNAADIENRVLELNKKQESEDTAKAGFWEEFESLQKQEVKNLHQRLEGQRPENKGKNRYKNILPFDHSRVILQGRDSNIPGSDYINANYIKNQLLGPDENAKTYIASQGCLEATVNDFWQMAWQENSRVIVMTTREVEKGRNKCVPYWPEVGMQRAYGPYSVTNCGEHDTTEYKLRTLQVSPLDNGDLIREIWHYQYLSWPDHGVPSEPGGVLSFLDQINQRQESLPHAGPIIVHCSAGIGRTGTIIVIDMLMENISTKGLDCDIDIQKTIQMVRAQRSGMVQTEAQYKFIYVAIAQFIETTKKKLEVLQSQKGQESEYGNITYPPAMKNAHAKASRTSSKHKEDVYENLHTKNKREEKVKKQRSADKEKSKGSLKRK
The assay can be described thus: PTPs activity assay (DiFMUP). The format is biochemical. On the procedure: as §1

On to `CCCCCCCCCCCC1=C(O)C(=O)C=C(O)C1=O` [Embelin], for which the “effect on cell mobility / migration” value in the assay with NCI‐H2122 and A549 cells was “potently inhibit the migration capabilities”. In addition, the IC50 on HePTP was above 200 µM; against ΔSHP2, 10.5 µM; on ΔSHP1, above 200 µM.

As to `O=C1Nc2ccc(I)cc2/C1=C/c1cc(Br)c(O)c(Br)c1` [S2872, GW5074], the half-inhibitory concentration (IC50) on HePTP is 472 µM; against ΔSHP2 it was 33.8 µM; against ΔSHP1 it was 246 µM.

With `CC1(N)CCN(c2cnc(-c3cccc(Cl)c3Cl)c(N)n2)CC1` [SHP099], in the assay with NCI‐H2122 and A549 cells, the “effect on cell mobility / migration” value was “poor effect on cell mobility”.

A word on the IC50: it is the concentration needed to halve the response being measured. Lower therefore signals higher potency.

Values taken from publication PMC12005787, “Synthetic Lethality of SHP2 and XIAP Suppresses Proliferation and Metastasis in KRAS‐mutant Nonsmall Cell Lung Cancer” (Advanced Science, 2025).
